Reference: patent US20260042764A1, “COMPOSITIONS AND METHODS FOR INHIBITION OF KRAS” (TheRas, Inc., priority 2022, published 2026)

What was measured:
[1] = molecular target: T1, Avi-KRAS G12V (2-169) GTP/RAF1 RBD-3xFLAG (51-131) (Homo sapiens, UniProt P01116, G12V); assay: Raf1-KRAS G12V-GTP disruption HTRF assay (Biological Example 3); format: binding; conditions: KRAS G12V, GTP-loaded
T1 construct: Avi-KRAS G12V (2-169)
Procedure, shortened: (§1)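 Each KRAS-GTP/RAF1 RBD complex at 50 nM, with 75 nM 3xFLAG-RAF1 RBD (51-131)-Avi, in 50 mM Tris pH 7.5, 100 mM NaCl, 5 mM MgCl2, 0.1% BSA, 0.01% Tween 20, 10% DMSO. Compounds titrated from 30 μM, 10-point 3x series; 1 h at room temperature with shaking. HTRF read, activity as percent of DMSO.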

SW620 cells (KRAS G12V) = assay: Cell-based pERK HTRF assay in SW620 cell (Biological Example 4)
Procedure, shortened: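 SW620 (KRAS G12V) cells seeded at 3×10^4/well in RPMI, 10% FBS, then treated next day for 4 h with a 9-point half-log series from 1 μM top (0.25% DMSO). Lysates analyzed for pERK by HTRF (Eu cryptate/d2 antibodies, 4–24 h at room temperature), excitation 320 nm, emission 615 nm.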

[2] = molecular target: T2, Avi-KRAS WT (2-169) GTP/RAF1 RBD-3xFLAG (51-131) (Homo sapiens, UniProt P01116); assay: Raf1-KRAS WT-GTP disruption HTRF assay (Biological Example 3); format: binding; conditions: KRAS WT, GTP-loaded
T2 construct: Avi-KRAS WT (2-169)
Procedure, shortened: as §1

[3] = molecular target: T3, Avi-KRAS G12C (2-169) GTP/RAF1 RBD-3xFLAG (51-131) (Homo sapiens, UniProt P01116, G12C); assay: Raf1-KRAS G12C-GTP disruption HTRF assay (Biological Example 3); format: binding; conditions: KRAS G12C, GTP-loaded
T3 construct: Avi-KRAS G12C (2-169)
Procedure, shortened: as §1

[4] = molecular target: T4, Avi-KRAS G12D (2-169) GTP/RAF1 RBD-3xFLAG (51-131) (Homo sapiens, UniProt P01116, G12D); assay: Raf1-KRAS G12D-GTP disruption HTRF assay (Biological Example 3); format: binding; conditions: KRAS G12D, GTP-loaded
T4 construct: Avi-KRAS G12D (2-169)
Procedure, shortened: as §1

GP2d cells (KRAS G12D) = assay: Cell-based pERK HTRF assay in GP2d cell (Biological Example 2); conditions: GP2d (KRAS G12D) cells
Procedure, shortened: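 GP2d (KRAS G12D) cells were plated in DMEM/10% FBS and treated the next day for 60 min with compounds. Dosing used 9-point half-log series starting at 1 μM or 100 nM in 0.25% DMSO. Lysates were read by HTRF pERK (d2/Eu cryptate antibodies) after 4–24 h at room temperature, with excitation at 320 nm and emission at 615 nm.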

[5] = Homo sapiens, SW-620, SW620 (KRAS G12V) cells

T2 sequence (P01116 2-169 isoform P01116-2): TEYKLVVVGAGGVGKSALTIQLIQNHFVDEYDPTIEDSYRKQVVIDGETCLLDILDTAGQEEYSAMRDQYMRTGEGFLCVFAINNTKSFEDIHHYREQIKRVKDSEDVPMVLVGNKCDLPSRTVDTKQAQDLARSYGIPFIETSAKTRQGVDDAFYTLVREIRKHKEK
T3 sequence (P01116 2-169 isoform P01116-2 G12C): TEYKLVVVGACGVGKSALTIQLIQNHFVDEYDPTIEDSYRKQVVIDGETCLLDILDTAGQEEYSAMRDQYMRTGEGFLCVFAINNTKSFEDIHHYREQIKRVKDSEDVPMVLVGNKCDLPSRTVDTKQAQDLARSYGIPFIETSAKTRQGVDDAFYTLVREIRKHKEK
T4 sequence (P01116 2-169 isoform P01116-2 G12D): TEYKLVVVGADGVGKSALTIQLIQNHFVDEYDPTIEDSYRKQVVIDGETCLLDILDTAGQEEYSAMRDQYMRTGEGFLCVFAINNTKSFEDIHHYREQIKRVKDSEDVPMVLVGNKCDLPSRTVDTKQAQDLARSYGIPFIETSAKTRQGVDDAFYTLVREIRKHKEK
T1 sequence (P01116 2-169 isoform P01116-2 G12V): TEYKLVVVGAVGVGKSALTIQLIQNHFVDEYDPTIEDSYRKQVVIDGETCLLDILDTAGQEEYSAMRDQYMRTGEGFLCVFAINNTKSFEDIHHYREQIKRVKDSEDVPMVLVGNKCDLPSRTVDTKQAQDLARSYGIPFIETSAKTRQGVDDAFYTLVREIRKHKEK

Structure (SMILES) | IC50 [1] | IC50 (SW620 cells (KRAS G12V); [5]) | IC50 [2] | IC50 [3] | IC50 [4] | IC50 (GP2d cells (KRAS G12D); GP2d) | IC50 (SW620 cells (KRAS G12V); SW620 (KRAS G12V) cells) | IC50 (GP2d cells (KRAS G12D))
CCN(c1nc(OCC23CCCN2CC(F)C3)nc2c(F)c(-c3ccc(F)c4sc(N)c(C#N)c34)c(C(F)(F)F)cc12)C1CCN(C(=O)c2ncns2)C1 (stereo not drawn) [Compound 949] | 100 to 1000 nM | < 100 nM | 100 to 1000 nM | 100 to 1000 nM | 100 to 1000 nM | < 100 nM | – | –
CCN(c1nc(OC[C@@]23CCCN2C[C@H](F)C3)nc2c(F)c(-c3ccc(F)c4sc(N)c(C#N)c34)c(C(F)(F)F)cc12)[C@H]1CCN(C(=O)OCC2COC2)[C@@H]1C (atropisomer, axis not shown) [Compound 835] | 100 to 1000 nM | < 100 nM | 1000 to 10000 nM | ≤ 100 nM | 100 to 1000 nM | < 100 nM | – | –
CCN(c1nc(OC[C@@]23CCCN2C[C@H](F)C3)nc2c(F)c(-c3ccc(F)c4sc(N)c(C#N)c34)c(C(F)(F)F)cc12)[C@H]1CCN(C(=O)O[C@@H]2CO[C@H]3OCC[C@H]32)C1 (atropisomer, axis not shown) [Compound 834] | ≤ 100 nM | < 100 nM | 100 to 1000 nM | ≤ 100 nM | ≤ 100 nM | < 100 nM | – | –
CN(c1nc(OCC23CCCN2CC(F)C3)nc2c(F)c(-c3ccc(F)c4sc(N)c(C#N)c34)c(C(F)(F)F)cc12)C1CCc2ccncc21 (stereo not drawn) [Compound 961] | 1000 to 10000 nM | – | > 10000 nM | > 10000 nM | 1000 to 10000 nM | – | < 100 nM | < 100 nM
CCN(c1nc(OC[C@@]23CCCN2C[C@H](F)C3)nc2c(F)c(-c3ccc(F)c4sc(N)c(C#N)c34)c(C(F)(F)F)cc12)C1CCN(C(=O)OC)C1 (stereo partly drawn) [Compound 947] | > 10000 nM | – | > 10000 nM | 1000 to 10000 nM | 1000 to 10000 nM | – | 100 to 1000 nM | < 100 nM
CCN(c1nc(OC[C@@]23CCCN2C[C@H](F)C3)nc2c(F)c(-c3ccc(F)c4sc(N)c(C#N)c34)c(C(F)(F)F)cc12)[C@H]1C[C@H]2C[C@H](C)C(=O)N2C1 (atropisomer, axis not shown) [Compound 891] | ≤ 100 nM | < 100 nM | ≤ 100 nM | ≤ 100 nM | ≤ 100 nM | < 100 nM | – | –
CCN(c1nc(OCC23CCCN2CC(F)C3)nc2c(F)c(-c3ccc(F)c4sc(N)c(C#N)c34)c(C(F)(F)F)cc12)C(C)c1cccnc1 (stereo not drawn) [Compound 933] | > 10000 nM | < 100 nM | > 10000 nM | > 10000 nM | 1000 to 10000 nM | < 100 nM | – | –
CCN(c1nc(OC[C@@]23CCCN2C[C@H](F)C3)nc2c(F)c(-c3ccc(F)c4sc(N)c(C#N)c34)c(C(F)(F)F)cc12)[C@H]1CCN(C(=O)N(C)C)[C@@H]1COC (atropisomer, axis not shown) [Compound 921] | 100 to 1000 nM | < 100 nM | 100 to 1000 nM | 100 to 1000 nM | 100 to 1000 nM | < 100 nM | – | –
CCN(c1nc(OC[C@@]23CCCN2C[C@H](F)C3)nc2c(F)c(-c3ccc(F)c4sc(N)c(C#N)c34)c(C(F)(F)F)cc12)[C@H]1C[C@H]2CC(C)(C)C(=O)N2C1 (atropisomer, axis not shown) [Compound 864] | 100 to 1000 nM | < 100 nM | 100 to 1000 nM | 100 to 1000 nM | ≤ 100 nM | < 100 nM | – | –
CCN(c1nc(OC[C@@]23CCCN2C[C@H](F)C3)nc2c(F)c(-c3ccc(F)c4sc(N)c(C#N)c34)c(C(F)(F)F)cc12)[C@H]1CCN(C(=O)C2C[C@H]2F)[C@@H]1C (stereo partly drawn) [Compound 874] | 100 to 1000 nM | < 100 nM | 100 to 1000 nM | 100 to 1000 nM | 100 to 1000 nM | < 100 nM | – | –
CCN(c1nc(OC[C@@]23CCCN2C[C@H](F)C3)nc2c(F)c(-c3ccc(F)c4sc(N)c(C#N)c34)c(C(F)(F)F)cc12)[C@H]1C[C@H](COC)N(C(=O)[C@H]2C[C@H]2F)C1 (atropisomer, axis not shown) [Compound 847] | 100 to 1000 nM | < 100 nM | 100 to 1000 nM | 100 to 1000 nM | 100 to 1000 nM | < 100 nM | – | –
CCN(c1nc(OC[C@@]23CCCN2C[C@H](F)C3)nc2c(F)c(-c3ccc(F)c4sc(N)c(C#N)c34)c(C(F)(F)F)cc12)[C@H]1CCN(C(=O)OC2CC(F)(F)C2)C1 (atropisomer, axis not shown) [Compound 830] | 100 to 1000 nM | < 100 nM | 100 to 1000 nM | 100 to 1000 nM | 100 to 1000 nM | < 100 nM | – | –
CCN(c1nc(OC[C@@]23CCCN2C[C@H](F)C3)nc2c(F)c(-c3ccc(F)c4sc(N)c(C#N)c34)c(C(F)(F)F)cc12)[C@H]1CCN(C(=O)C2CC2(F)F)[C@@H]1C (stereo partly drawn) [Compound 888] | 100 to 1000 nM | < 100 nM | 100 to 1000 nM | 100 to 1000 nM | 100 to 1000 nM | < 100 nM | – | –
CN(Cc1ccno1)c1nc(OC[C@@]23CCCN2C[C@H](F)C3)nc2c(F)c(-c3ccc(F)c4sc(N)c(C#N)c34)c(C(F)(F)F)cc12 (atropisomer, axis not shown) [Compound 917] | 100 to 1000 nM | < 100 nM | 1000 to 10000 nM | 1000 to 10000 nM | 100 to 1000 nM | < 100 nM | – | –

Now from value to molecule:

IC50 [1] | IC50 (SW620 cells (KRAS G12V); [5]) | IC50 [2] | IC50 [3] | IC50 [4] | IC50 (GP2d cells (KRAS G12D); GP2d) | IC50 (SW620 cells (KRAS G12V); SW620 (KRAS G12V) cells) | IC50 (GP2d cells (KRAS G12D)) | Structure (SMILES)
100 to 1000 nM | < 100 nM | 100 to 1000 nM | 100 to 1000 nM | 100 to 1000 nM | < 100 nM | – | – | CCN(c1nc(OC[C@@]23CCCN2C[C@H](F)C3)nc2c(F)c(-c3ccc(F)c4sc(N)c(C#N)c34)c(C(F)(F)F)cc12)[C@H]1CCN(C(=O)c2ncc(C)s2)C1 (atropisomer, axis not shown) [Compound 919]
1000 to 10000 nM | < 100 nM | 1000 to 10000 nM | 1000 to 10000 nM | 100 to 1000 nM | < 100 nM | – | – | CCN(c1nc(OC[C@@H]2C[C@@H](OC)CN2C)nc2c(F)c(-c3ccc(F)c4sc(N)c(C#N)c34)c(C(F)(F)F)cc12)[C@H]1CCN(C(=O)OC)C1 [Compound 871]
≤ 100 nM | < 100 nM | 100 to 1000 nM | ≤ 100 nM | ≤ 100 nM | < 100 nM | – | – | CCN(c1nc(OC[C@@]23CCCN2C[C@H](F)C3)nc2c(F)c(-c3ccc(F)c4sc(N)c(C#N)c34)c(C(F)(F)F)cc12)[C@H]1CCN(C(=O)c2coc(C)n2)C1 (atropisomer, axis not shown) [Compound 832]
100 to 1000 nM | < 100 nM | 100 to 1000 nM | 100 to 1000 nM | 100 to 1000 nM | < 100 nM | – | – | CCN(c1nc(OC[C@@]23CCCN2C[C@H](F)C3)nc2c(F)c(-c3ccc(F)c4sc(N)c(C#N)c34)c(C(F)(F)F)cc12)[C@H]1CCN(C(=O)c2cccs2)C1 (atropisomer, axis not shown) [Compound 920]
100 to 1000 nM | < 100 nM | 100 to 1000 nM | 100 to 1000 nM | 100 to 1000 nM | < 100 nM | – | – | CCN(c1nc(OC[C@@]23CCCN2C[C@H](F)C3)nc2c(F)c(-c3ccc(F)c4sc(N)c(C#N)c34)c(C(F)(F)F)cc12)[C@H]1CCN(C(=O)c2nccs2)C1 (atropisomer, axis not shown) [Compound 927]
100 to 1000 nM | < 100 nM | 100 to 1000 nM | 100 to 1000 nM | 100 to 1000 nM | < 100 nM | – | – | CCN(c1nc(OC[C@@]23CCCN2C[C@H](F)C3)nc2c(F)c(-c3ccc(F)c4sc(N)c(C#N)c34)c(C(F)(F)F)cc12)[C@H]1CCN(C(=O)OC2CC(OC)C2)[C@@H]1C (stereo partly drawn) [Compound 897]
